Measurements from article PMC9942197, “Mechanistic Insights into the Ene-Reductase-Catalyzed Promiscuous Reduction of Oximes to Amines” (ACS Catalysis, 2023).
Each block holds one molecule with its values, some of them ahead of it.

Key:
XenA [1] = target: T1, XenA (Pseudomonas putida, UniProt Q9R9V9); experiment: X-ray crystal structure; assay type: binding; settings: active site, oxidized flavin
T1 construct: recombinant purified FMN ene-reductase, His-tagged (position differs from earlier reports)
T1 sequence (Q9R9V9 entry or part of it): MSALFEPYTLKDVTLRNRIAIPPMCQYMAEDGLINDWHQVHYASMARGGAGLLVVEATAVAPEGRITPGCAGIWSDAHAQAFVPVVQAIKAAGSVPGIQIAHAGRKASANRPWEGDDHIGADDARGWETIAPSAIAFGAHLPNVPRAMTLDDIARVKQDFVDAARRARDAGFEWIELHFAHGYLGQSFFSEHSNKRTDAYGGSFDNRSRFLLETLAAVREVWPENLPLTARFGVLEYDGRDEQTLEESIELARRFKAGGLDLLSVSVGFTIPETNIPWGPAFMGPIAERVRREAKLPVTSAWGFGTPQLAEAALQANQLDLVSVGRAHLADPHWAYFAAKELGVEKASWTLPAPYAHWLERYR

OPR3 [2] = target: T2, OPR3 (Solanum lycopersicum, UniProt Q9FEW9, Y190F); experiment: stopped-flow pre-steady-state kinetics, oxidative half-reaction; assay type: biochemical; settings: oxidative half-reaction of reduced enzyme; read-out: Kd oxime
T2 construct: recombinant purified FMN ene-reductase; construct details in supplement
T2 sequence (Q9FEW9 whole entry Y190F): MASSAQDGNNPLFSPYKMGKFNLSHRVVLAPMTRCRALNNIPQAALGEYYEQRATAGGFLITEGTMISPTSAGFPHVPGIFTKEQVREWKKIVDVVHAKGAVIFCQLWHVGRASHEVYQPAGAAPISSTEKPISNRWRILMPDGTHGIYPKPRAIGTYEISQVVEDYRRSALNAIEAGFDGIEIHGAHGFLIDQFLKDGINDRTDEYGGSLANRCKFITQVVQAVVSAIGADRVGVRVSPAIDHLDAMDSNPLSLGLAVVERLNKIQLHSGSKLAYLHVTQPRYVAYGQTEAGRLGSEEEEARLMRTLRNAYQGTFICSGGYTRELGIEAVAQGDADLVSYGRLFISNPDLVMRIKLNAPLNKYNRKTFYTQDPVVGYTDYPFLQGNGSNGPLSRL
Text: (§1) stopped-flow pre-steady-state kinetics, oxidative half-reaction on OPR3

OPR3 [3] = target: T3, OPR3 (Solanum lycopersicum, UniProt Q9FEW9); experiment: as above; assay type: biochemical; settings: oxidative half-reaction of reduced enzyme; read-out: Kd oxime
T3 construct: recombinant purified FMN ene-reductase; construct details in supplement
T3 sequence (Q9FEW9 whole entry): as the sequence (Q9FEW9 whole entry Y190F) above, with F190Y counted along it
Text: as §1

OPR3 [4] = target: T4, OPR3 (Solanum lycopersicum, UniProt Q9FEW9, Y370F); experiment: as above; assay type: biochemical; settings: oxidative half-reaction of reduced enzyme; read-out: Kd oxime
T4 construct: recombinant purified FMN ene-reductase; construct details in supplement
T4 sequence (Q9FEW9 whole entry Y370F): as the sequence (Q9FEW9 whole entry Y190F) above, with F190Y, Y370F counted along it
Text: as §1

OPR3 [5] = target: T3, OPR3; experiment: X-ray crystal structure; assay type: binding; settings: active site, oxidized flavin
XenA [6] = target: T1, XenA; experiment: stopped-flow pre-steady-state kinetics, oxidative half-reaction; assay type: biochemical; settings: oxidative half-reaction of reduced enzyme; read-out: Kd oxime
Text: stopped-flow pre-steady-state kinetics, oxidative half-reaction on XenA

XenA [7] = target: T1, XenA; experiment: stopped-flow pre-steady-state kinetics, reductive half-reaction; assay type: biochemical; settings: read-out: Kd NADPH; reductive half-reaction of oxidized enzyme
Text: stopped-flow pre-steady-state kinetics, reductive half-reaction on XenA

X-ray crystal structure (XenA [1]): (b) XenA/1a.
Kd (OPR3 [2]): 69 ± 4 µM
Kd (OPR3 [3]): 79 ± 4 µM
Kd (OPR3 [4]): 37.4 ± 4.4 µM
SMILES: CCOC(=O)C(=NO)C(C)=O [1a, oxime 1a]

X-ray crystal structure (OPR3 [5]): (c) OPR3/1b.
Kd (XenA [6]): 6430 ± 1570 µM
SMILES: CCOC(=O)C(=NO)C(=O)CC [1b, oxime 1b]

Kd (XenA [7]): 109 ± 5.1 µM
SMILES: NC(=O)C1=CN([C@@H]2O[C@H](COP(=O)(O)OP(=O)(O)OC[C@H]3O[C@@H](n4cnc5c(N)ncnc54)[C@H](OP(=O)(O)O)[C@@H]3O)[C@@H](O)[C@H]2O)C=CC1 [NADPH]
